Test results published in patent US5371225A, “Tetracyclic compounds” (Kyowa Hakko Kogyo Co., Ltd., priority 1992, dated 1994).

Experiments:
[1] = tested on: spleen cells (antibody production, direct PFC count); assay: Plaque Forming Cell Assay (inhibition of antibody production); assay type: cell-based, Balb/c strain mice; details: Mus musculus, Erythrocyte, 120 h, spleen cells of mice sensitized with sheep erythrocytes, cultured 5 days, read-out: Inhibition rate; for inhibition at 10 µM: 10^-5 M; for inhibition at 0.1 µM: 10^-7 M
[2] = tested on: spleen cells (antibody production, direct PFC count); assay: as above; assay type: cell-based, Balb/c strain mice; details: Mus musculus, Erythrocyte, 120 h; 10^-6 M; spleen cells of mice sensitized with sheep erythrocytes, cultured 5 days; read-out: Inhibition rate
Experimental: The plaque forming cell assay was carried out by the following manner with reference to the method of Jerne et al. [Science, 140, 405 (1963) ]and the method of Yamamoto et al. [Drugs Experimental Clinical Research, III(1), 5 (1982)].
Male Balb/c strain mice (7-week-old) (Charles River Co.) were sensitized with 1×10^8 sheep erythrocytes (product of Biotest Research Institute) administered via the caudal vein, and the spleens were extirpated after 6 or 7 days after the sensitization. The extirpated spleens were immersed in Hanks' solution (Nissui Seiyaku) to make a cell suspension, which was then filtered, followed by centrifugal separation at 1200 rpm for 5 minutes. After centrifugal separation, the supernatant was discarded and the precipitate was treated with Tris·NH4 Cl solution to remove the erythrocytes, and then washed three times with Hanks' solution. After discarding the supernatant, the cells were suspended in an RPMI-1640 medium (Nissui Seiyaku) containing 10% bovine fetal serum (Gibco Co. ), 50 μg/ml of streptomycin (Meiji Seika), […] of penicillin (Meiji Seika) and 2mercaptoethanol (5×10^-5 M). In each well of a micro culture plate (NUNK Co., Ltd., 24 wells) were put 2 ml of the mixture of the cell suspension containing 1×10^7 of spleen cells, 5×10^6 sheep erythrocytes and a test compound solution (10^-6 M) obtained by diluting the test compound dissolved in dimethylsulfoxide (10^-2 M) with the above mentioned RPMI-1640, and the cells were cultured at 37° C. for 5 days.
After the completion of the culturing, the cells were subjected to centrifugal separation at 2000 rpm for 5 minutes, and the resulting supernatant was removed. The precipitate was suspended in 1 ml of Hanks' solution, again subjected to centrifugal separation, suspended in 1 ml of Hanks' solution, and then, 50 μl of the suspension and 50 μl of sheep erythrocytes were added to 400 μl of 0.25% agarose/Hanks' solution heated to 50° C. in advance, and the mixture was scattered on a glass slide, placed on a plaque assay plate, and together with guinea pig complement (Cedarlene Institute) diluted 40-fold with a phosphate buffer solution, incubated at 37° C. for 1 to 2 hours. The number of the appearing direct plaque cells (direct PFC count) in suspension was counted.
The inhibition rate of the antibody production of the test compound was determined by the following equation. [formula]
The compound used for comparison was 5,6-dihydro-9-fluoro-3-phenylbenz[c]acridine-7-carboxylic acid [Japanese Published Unexamined Patent Application No. 233661/90, hereinafter referred to as Compound (A)]represented by formula (A). [drawing 12]
PFC count in control means PFC count in the absence of the test compound (dimethylsulfoxide alone).

O=C(O)c1c2c(nc3ccc(F)cc13)-c1ccc(-c3ccccc3F)cc1CCC2 [Compound 3, 6,7-Dihydro-10-fluoro-3-(2-fluorophenyl) -5Hbenzo [6, 7]cyclohepta [1,2-b]quinoline-8-carboxylic acid]
inhibition at 10 µM [1]: 83.5%
inhibition at 0.1 µM [1]: 55.4%
inhibition at 1 µM [2]: 80.3%

O=C(O)c1c2c(nc3ccc(F)cc13)-c1ccc(-c3ccccc3)cc1CC2 [A, 5,6-dihydro-9-fluoro-3-phenylbenz[c]acridine-7-carboxylic acid, reference compound]
inhibition at 10 µM [1]: 78.6%
inhibition at 1 µM [2]: 45.9%

CC1(C)Cc2c(nc3ccc(F)cc3c2C(=O)O)-c2ccc(-c3ccccc3F)cc21 [Compound 7]
inhibition at 10 µM [1]: 98.1%
inhibition at 1 µM [2]: 75.3%

O=C(O)c1c2c(nc3ccc(F)cc13)-c1ccc(-c3ccccc3F)cc1CC2 [Compound 2, 5,6-Dihydro-9-fluoro-3-(2-fluorophenyl) ben z [c]acridine-7carboxylicacid]
inhibition at 10 µM [1]: 99.4%
inhibition at 0.1 µM [1]: 57.1%
inhibition at 1 µM [2]: 94.4%

CC1Cc2cc(-c3ccccc3F)ccc2-c2nc3ccc(F)cc3c(C(=O)O)c21 (centres unmarked) [Compound 8]
inhibition at 10 µM [1]: 98.7%
inhibition at 1 µM [2]: 80.2%

CC1Cc2c(nc3ccc(F)cc3c2C(=O)O)-c2ccc(-c3ccccc3F)cc21 (centres unmarked) [Compound 5, 5,6-Dihydro-9-fluoro-3-(2-fluorophenyl)-5methylbenz[c]acridine-7-carboxylicacid]
inhibition at 10 µM [1]: 98.7%
inhibition at 1 µM [2]: 64.6%
